Results from US11332485B2, “Penicillin-binding protein inhibitors” (priority 2017, dated 2022).

Tests used:
[1] = target: T1, E. coli K12 PBP1a (Escherichia coli, UniProt P02918); test: Bocillin FL competition binding assay (SDS-PAGE gel, membrane PBPs); conditions: 15 min. pre-incubation, membrane protein extracts, SDS-PAGE fluorescence scan
T1 construct: 100 μg's of total membrane protein extracts containing PBPs; endogenous in cells; host or cells: Escherichia coli K12 membrane fraction
Description: (§1) To determine the ability of test compounds to bind Penicillin Binding Proteins (PBPs), a competition binding assay using Bocillin FL (fluorescent derivative of penicillin V) was adapted from the classical method used to assess PBP potency of beta-lactams.
(§2) Penicillin binding proteins were isolated from Escherichia coli K12 by growth of Escherichia coli K12 from a single colony in 4 L of Luria-Bertani (LB) broth at 35° C. and 250 rpm to an OD600 nm of 0.5. The cells were harvested by centrifugation at 7,000×g for 10 min. at 4° C. Cells were resuspended and washed in 50 mM potassium phosphate pH 7.5. The cells were re-suspended in sonication buffer [50 mM Tris-HCl pH 7.5, 1 mM MgCl2, 1 mM beta-mercaptoethanol, and 5 μg/mL DNAse I] and sonicated by 4 passes of 30 seconds at 45 W on ice. The sample was clarified by centrifugation at 3,000×g to remove cell debris and unbroken cells and supernatant containing the membrane proteins was retained. The membrane proteins including the PBPs were further purified from soluble constituents by an ultracentrifugation step at 100,000×g for 30 min. at 4° C. The membrane proteins are washed twice with 10 mM sodium phosphate pH 7, resuspended in a volume of 5 mL, quantitated by BCA assay, adjusted to […] and frozen at −80° C. until use.
(§3) The adapted Bocillin FL competition binding assay described herein incorporates a 15 min. pre-incubation of test compound with isolated PBPs to attempt to balance the difference in mechanism of inhibition between beta-lactams (largely irreversible covalent bond to active site Serine) and the boron-containing PBP inhibitor test compounds (reversible covalent bond to active site Serine). Briefly, 50 μL reactions consisted of 100 μg's of total membrane protein extracts containing PBPs incubated with a dilution series of test compound ranging from 0.005 μg/mL to 2,480 μg/mL in 10 mM sodium phosphate pH7 containing 350 mM NaCl. Thirty minute reactions at 35° C. were initiated by addition of […] Bocillin FL, quenched by addition of SDS-PAGE loading buffer containing sodium dodecyl sulfate (SDS) and heated for 15 minutes at 95° C. to denature proteins in preparation for SDS-polyacrylamide gel electrophoresis. The Bocillin FL labeled PBPs are then separated by SDS-PAGE in Novex NuPage 10% Bis-Tris pre-cast gels (Invitrogen). The SDS-PAGE gel, post-electrophoresis, is then washed in water to remove excess SDS for 10 minutes at room temperature and placed on the scanning bed of a GE Healthcare/Amersham Biosciences Storm 860 fluorescence scanner. […] Effective PBP inhibitors are detected by a reduction in Bocillin FL labeling of the particular PBP over the dose range of test compound in a dose-responsive manner. […]

[2] = target: T2, E. coli PBP3 (Escherichia coli, UniProt P0AD68); test: as above; conditions: 15 min. pre-incubation, membrane protein extracts, SDS-PAGE fluorescence scan
T2 construct: 100 μg's of total membrane protein extracts containing PBPs; endogenous in cells; host or cells: Escherichia coli K12 membrane fraction
Description: as §1, §2, §3

[3] = system: E. coli PBP1b; test: as above; set-up: species or system Escherichia coli; conditions: 15 min. pre-incubation, membrane protein extracts, SDS-PAGE fluorescence scan
Description: as §1
Penicillin binding proteins were isolated from Escherichia coli K12 by growth of Escherichia coli K12 from a single colony in 4 L of Luria-Bertani (LB) broth at 35° C. and 250 rpm to an OD600 nm of 0.5. The cells were harvested by centrifugation at 7,000×g for 10 min. at 4° C. Cells were resuspended and washed in 50 mM potassium phosphate pH 7.5. […] The membrane proteins are washed twice with 10 mM sodium phosphate pH 7, resuspended in a volume of 5 mL, quantitated by BCA assay, adjusted to 10 μg/mL and frozen at −80° C. until use.
The adapted Bocillin FL competition binding assay described herein incorporates a 15 min. pre-incubation of test compound with isolated PBPs to attempt to balance the difference in mechanism of inhibition between beta-lactams (largely irreversible covalent bond to active site Serine) and the boron-containing PBP inhibitor test compounds (reversible covalent bond to active site Serine). […] The SDS-PAGE gel, post-electrophoresis, is then washed in water to remove excess SDS for 10 minutes at room temperature and placed on the scanning bed of a GE Healthcare/Amersham Biosciences Storm 860 fluorescence scanner. […]

[4] = system: S. aureus ATCC 29213; test: Broth microdilution MIC assay; type: cell-based; conditions: Staphylococcus aureus, ATCC29213; broth microdilution, 16-20 hours at 37° C.; read-out: S. aureus 29213 MIC
In short: (§4)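 Following CLSI procedures, compounds were serially diluted 2-fold and challenged with bacteria at 5×10^5 CFU/mL in Mueller-Hinton broth supplemented with divalent cations. After 16-20 hours at 37° C, the lowest concentration without visible growth was recorded as the MIC.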

[5] = system: hyper-permeable E. coli 901C; test: Broth microdilution MIC assay; type: cell-based; conditions: Escherichia coli, read-out: E. coli 901C MIC
In short: as §4

[6] = system: E. coli DH5α/pLBII; test: Broth microdilution MIC assay, empty vector control strain; type: cell-based; conditions: Escherichia coli, read-out: E. coli DH5α/pLBII Microbiological Activity (MIC)
In short: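 CLSI broth microdilution in cation-supplemented Mueller-Hinton broth, 2-fold compound dilutions, 5×10^5 CFU/mL inoculum, 16-20 h at 37° C, MIC read visually as lowest concentration without growth. E. coli DH5α carries CTX-M15 on pLBII under Lac promoter, or empty pLBII as control.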

T1 sequence (P02918 whole entry): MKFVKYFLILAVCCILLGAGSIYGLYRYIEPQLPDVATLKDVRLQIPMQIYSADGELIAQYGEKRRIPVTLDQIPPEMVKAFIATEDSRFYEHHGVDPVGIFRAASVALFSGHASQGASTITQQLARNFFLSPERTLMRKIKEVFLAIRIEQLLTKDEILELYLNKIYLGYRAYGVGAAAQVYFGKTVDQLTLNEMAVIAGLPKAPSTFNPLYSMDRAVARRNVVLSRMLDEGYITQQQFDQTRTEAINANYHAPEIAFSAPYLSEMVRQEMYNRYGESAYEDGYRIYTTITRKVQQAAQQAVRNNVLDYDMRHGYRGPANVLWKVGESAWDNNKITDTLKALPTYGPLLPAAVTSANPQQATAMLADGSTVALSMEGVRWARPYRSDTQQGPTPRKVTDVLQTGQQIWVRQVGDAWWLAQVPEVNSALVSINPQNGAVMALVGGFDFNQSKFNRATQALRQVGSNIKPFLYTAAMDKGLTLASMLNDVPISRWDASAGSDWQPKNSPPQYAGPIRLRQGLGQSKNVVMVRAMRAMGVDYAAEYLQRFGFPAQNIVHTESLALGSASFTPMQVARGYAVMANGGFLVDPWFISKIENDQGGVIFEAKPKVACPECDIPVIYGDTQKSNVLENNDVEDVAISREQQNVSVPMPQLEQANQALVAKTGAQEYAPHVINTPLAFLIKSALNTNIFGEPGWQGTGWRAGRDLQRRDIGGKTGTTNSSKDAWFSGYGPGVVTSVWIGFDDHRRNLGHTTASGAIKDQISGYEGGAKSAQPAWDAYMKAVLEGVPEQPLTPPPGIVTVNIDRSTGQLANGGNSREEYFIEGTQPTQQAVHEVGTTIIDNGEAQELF
T2 sequence (P0AD68 1-577): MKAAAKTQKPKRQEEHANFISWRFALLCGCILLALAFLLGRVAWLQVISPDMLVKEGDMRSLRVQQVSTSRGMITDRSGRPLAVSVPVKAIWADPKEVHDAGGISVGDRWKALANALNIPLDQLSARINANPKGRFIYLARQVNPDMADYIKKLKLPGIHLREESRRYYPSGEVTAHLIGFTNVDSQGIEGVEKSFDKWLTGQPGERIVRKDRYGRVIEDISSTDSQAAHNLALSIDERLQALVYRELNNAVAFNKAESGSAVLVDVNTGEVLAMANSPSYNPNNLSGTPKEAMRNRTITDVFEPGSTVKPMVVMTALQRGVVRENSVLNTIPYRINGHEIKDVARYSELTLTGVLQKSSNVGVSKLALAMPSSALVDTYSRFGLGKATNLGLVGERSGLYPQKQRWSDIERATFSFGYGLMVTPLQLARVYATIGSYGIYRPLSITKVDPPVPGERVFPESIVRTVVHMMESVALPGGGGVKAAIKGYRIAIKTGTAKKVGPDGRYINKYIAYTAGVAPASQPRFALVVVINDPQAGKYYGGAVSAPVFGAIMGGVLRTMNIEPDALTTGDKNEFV

CCN1CCN(C(=O)NC(C(=O)N[C@H]2Cc3cccc(C(=O)O)c3OB2O)c2csc(N)n2)C(=O)C1=O (stereo partly drawn) [Example 12, (3R)-3-(2-(2-aminothiazol-4-yl)-2-(4-ethyl-2,3-dioxopiperazine-1-carboxamido)acetamido)-2-hydroxy-3,4-dihydro-2H-benzo[e][1,2]oxaborinine-8-carboxylic acid]
E. coliK12 PBP1a Potency [1]: B (B represents a potency between 64 and 1000 μg/mL inclusive)
E. coli PBP3 Potency [2]: A (A represents a potency of >1000 μg/mL)
E. coli PBP1b Potency [3]: C (C represents a potency of <64 μg/mL)
MIC [4]: 64 to 128 µg/mL
MIC [5]: < 64 µg/mL
MIC [6]: 8 to 16 µg/mL
